Test results reported in publication PMC8443589, “Modelling human liver fibrosis in the context of non-alcoholic steatohepatitis using a microphysiological system” (Communications Biology, 2021).

Assays:
[1] = design: method as in PMID 27743502; settings: cited from earlier work
[2] = test system: liver MPS NASH model (PHH, KC and HSC co-cultures); assay: Cue study: pro-fibrotic biomarkers TIMP-1, pro-collagen 1, fibronectin (Fig 5c); format: cell-based, human; settings: for Fibronectin (Fold change in cytokine production compared to control) / Pro-collagen 1 (Fold change in cytokine production compared to control) / TIMP-1 (Fold change in cytokine production compared to control): fat medium + cue
From the text: Assessment of gene expression changes was supplemented by assessment of the secretome produced by NASH microtissues in the MPS after exposure to the various cues. Increased pro-inflammatory cytokine secretion is a defining characteristic in NASH patients, so we conducted a Luminex cytokine array covering 42 different biomarkers, cytokines and chemokines secreted into the culture media of the different microtissues at multiple time points. We consistently detected 27 out of the 42 biomarkers and observed that there was differential expression of cytokines and chemokines driven by the different cues applied to the micro-tissue (Fig. 5a, b). The LPS cue and the presence of higher NPC numbers were responsible for driving the largest increase in cytokine and chemokine release, with the largest increases in cytokines measured on day 14 (Fig. 5b). […] Similarly, to the cytokine production, these changes were not further enhanced by combining cues, as all the cue combinations containing TGFβ had the highest expression (Supp. Fig. 17c).
Fig. 5 Systems biology interrogation of liver MPS NASH model to determine physiologically relevant cues that promote soluble biomarker changes to mimic advanced NASH disease state. PHH, KC and HSC co-cultures were cultured in the MPS platform under a variety of conditions for 14 days to test number of NPCs, presence of fat, fructose, cholesterol, LPS and TGFβ for effects on the soluble biomarker profile of the liver MPS NASH model. Expression of biomarkers, cytokines and chemokines were compared, all concentrations were normalised by Z-transformation to allow comparison and shown relative to mean for each marker (white = not detected). a Cytokine expression compared with varying levels of NPCs; b for the high NPC group in the presence of additional cues; c Expression of pro-fibrotic biomarkers with varying NPC content and with additional varying cues in high NPC condition (additional data in Supp. Fig. 17). d Graphical summary of the changes that occur in the NASH model in the presence of Fat and Fat + TGFβ. All data were generated from a minimum of three independent replicate samples per condition.
The MPS LC12 plates consists of 12 individual bioreactors that contain pneumatically driven micro-pumps to recirculate cell culture medium through a collagen-coated scaffold. Cells were cultured using the protocol previously described[20],[21], but briefly, PHH were seeded at a density of 6 × 10^5 viable cells per well on the LC12 plates with each NPC population (KC and/or HSC) at a density of 6 × 10^4 viable cells per well. Each well contained a final volume of 1.6 mL of medium per well and maintained under a flow rate of 1.0 µL/s. Cells were seeded in Williams E medium containing primary hepatocyte thawing and plating supplements (Life Technologies, USA) and cultured initially under downward flow for 8 h before the flow was automatically reversed to upward flow for the next 16 h of culture. Microtissues were then cultured in either HEP-Lean or HEP-Fat medium, both media’s are proprietary to CN Bio Innovations Ltd. The HEP-Fat medium is a derivative of the HEP-LEAN medium and contains a mixture of saturated and unsaturated FFAs, as well as physiologically relevant quantities of insulin and sugars. Complete media changes were performed on all wells every 48–72 h. For certain experiments, the media was supplemented with additional additives from day 4 onwards: 1 ng/ml LPS (lipopolysaccharides from Escherichia coli O111:B4) (Sigma Aldrich, UK), 1 ng/ml recombinant TGF beta 1 protein (Abcam, UK); 500 µM Fructose (Sigma Aldrich, UK), 50 µg/ml Cholesterol (Sigma Aldrich, UK). […]

CC[C@H]1[C@@H](O)[C@@H]2[C@H](CC[C@]3(C)[C@@H]([C@H](C)CCC(=O)O)CC[C@@H]23)[C@@]2(C)CC[C@@H](O)C[C@@H]12 [Obeticholic acid]
Plasma protein binding [1]: >99%

TGFβ: recombinant TGF beta 1 protein (Abcam), 1 ng/ml cue
Fibronectin (Fold change in cytokine production compared to control) ([2]; Day 6, high NPC): 1.218 | Pro-collagen 1 (Fold change in cytokine production compared to control) ([2]; Day 6, high NPC): 1.954 | TIMP-1 (Fold change in cytokine production compared to control) ([2]; Day 6, high NPC): 2.132 | Fibronectin (Fold change in cytokine production compared to control) ([2]; Day 11, high NPC): 1.379 | Pro-collagen 1 (Fold change in cytokine production compared to control) ([2]; Day 11, high NPC): 1.672 | TIMP-1 (Fold change in cytokine production compared to control) ([2]; Day 11, high NPC): 1.0946 | Fibronectin (Fold change in cytokine production compared to control) ([2]; Day 14, high NPC): 0.05285 | Pro-collagen 1 (Fold change in cytokine production compared to control) ([2]; Day 14, high NPC): 0.4105 | TIMP-1 (Fold change in cytokine production compared to control) ([2]; Day 14, high NPC): 0.9486 | pro-collagen 1, fibronectin and TIMP-1 expression ([2]; cue study): most significant increases
